Assay results: patent US20200016231A1, “BIOFILM DISRUPTING COMPOSITION” (Whiteley Corporation Pty Ltd, priority 2016, published 2020)
Where two headings read alike, the source gives them in different places.

Experiments:
[1] = system: biofilms; conditions: GSH at 30 milli Molar; also non-Pseudomonad organisms (FIGS. 1-13)
Method: Bacterial isolates were grown in Tryptone Soya Broth (TSB) medium for 24 hours at 37° C., in a shaking incubator set at 150 rpm. After this time the organisms were harvested by centrifugation (5000×g, 5 min at 10° C.). After centrifugation, the supernatant liquid was removed and the bacterial pellet was suspended in 1×Phosphate Buffered Saline (PBS). To initiate biofilm growth, the bacterial suspension from PBS was immediately re-suspended in TSB and 250 μL of bacterial cell suspension (OD600=0.5±0.05) were added into the wells of 96-well plates (Corning Corp. USA) and incubated at 37° C. for 48 h at 150 r.p.m. […]
(§1) After a further 24 h, the fluorescent intensity of the biofilm was determined at Ex544 nm and Em590 nm (Tecan infinite M1000 pro microplate reader). Results are plotted as percentage (%) of bacterial vaiability calculated based on fluorescent intensity. Control or untreated bacterial biofilm fluorescent intensity always considered as 100% bacterial viability and % viability under rest of treatment conditions were calculated with reference to control.
(§2) It should be noted that the Resazurin assay works by recording fluorescence intensity and depends upon two factors (total number of bacteria and total number of viable bacteria in a given biofilm sample).

[2] = system: Pseudomonas aeruginosa; test: Biofilm viability, resazurin assay, Pseudomonas aeruginosa clinical isolates; format: cell-based; conditions: read-out: % bacterial viability; for viability at 10000 µM: GSH 10 mM; for viability at 15000 µM: GSH 15 mM; for viability at 30000 µM: GSH 30 mM
[3] = system: Klebsiella pneumoniae; test: Biofilm viability, resazurin assay, Klebsiella pneumoniae clinical isolates; format: cell-based; conditions: read-out: % bacterial viability; for viability at 10000 µM: GSH 10 mM; for viability at 15000 µM: GSH 15 mM; for viability at 30000 µM: GSH 30 mM
Method: (§3) Bacterial isolates were grown in Tryptone Soya Broth (TSB) medium for 24 hours at 37° C., in a shaking incubator set at 150 rpm. After this time the organisms were harvested by centrifugation (5000×g, 5 min at 10° C.). After centrifugation, the supernatant liquid was removed and the bacterial pellet was suspended in 1×Phosphate Buffered Saline (PBS). To initiate biofilm growth, the bacterial suspension from PBS was immediately re-suspended in TSB and 250 μL of bacterial cell suspension (OD600=0.5±0.05) were added into the wells of 96-well plates (Corning Corp. USA) and incubated at 37° C. for 48 h at 150 r.p.m.
(§4) After 24 h, treated biofilms supernatant were replaced with 200 μL of 1×PBS, followed by addition of 15 μL of a 0.05% w/v solution of resazurin (Sigma-Aldrich), and incubated further at 37° C., 150 r.p.m.
as §1, §2
The treatments shown in column 1 of table 7 were tested against three clinical isolates of Klebsiella pneumoniae.

[4] = system: E aerogenes; test: Biofilm viability, resazurin assay, Enterobacter species: E aerogenes; format: cell-based; conditions: E aerogenes 359475 Sternum, read-out: % bacterial viability
Method: as §3, §4, §1, §2
(§5) The treatments shown in column 1 of Table 8 were tested against three clinical isolates of Enterobacter species.

[5] = system: E. cloacae; test: Biofilm viability, resazurin assay, Enterobacter species: E. cloacae; format: cell-based; conditions: read-out: % bacterial viability; for viability at 10000 µM: GSH 10 mM; for viability at 15000 µM: GSH 15 mM; for viability at 30000 µM: GSH 30 mM
Method: as §3, §4, §1, §2, §5

[6] = system: Staphylococcus agalactiae; test: organism not typed; format: cell-based, Streptococcus agalactiae; conditions: for viability at 10000 µM: GSH 10 mM; for viability at 15000 µM: GSH 15 mM; for viability at 30000 µM: GSH 30 mM
Method: The treatments shown in column 1 of Table 5 were tested against four strains of […] agalactiae, (veterinary strains ex Cow mastitis). […] The treatments shown in column 1 of Table 13 were tested against four strains of […] agalactiae, (veterinary strains ex Cow mastitis).

[7] = system: Escherichia coli; test: Biofilm viability, resazurin assay, Escherichia coli clinical isolates; format: cell-based; conditions: read-out: % bacterial viability; for viability at 10000 µM: GSH 10 mM; for viability at 15000 µM: GSH 15 mM; for viability at 30000 µM: GSH 30 mM
Method: as §3, §4, §1, §2
The treatments shown in column 1 of Table 9 were tested against three clinical isolates of Enterobacter species.

[8] = system: Multidrug resistant Acinetobacter Baumannii, (MRAB); test: microbe, parasite or virus in culture
[9] = system: methicillin-resistant Staphylococcus aureus; test: microbe, parasite or virus in culture; conditions: MRSA
[10] = system: Streptococcus pyogenes; test: Biofilm viability, resazurin assay, Streptococcus pyogenes clinical isolates; format: cell-based; conditions: read-out: % bacterial viability; for viability at 10000 µM: GSH 10 mM; for viability at 15000 µM: GSH 15 mM; for viability at 30000 µM: GSH 30 mM
Method: as §3, §4, §1, §2
The treatments shown in column 1 of Table 10 were tested against three clinical isolates of Enterobacter species. The treatments used are given in column 1, and the % bacterial viability for each strain tested are given in the subsequent columns (see also FIG. 9).

[11] = E. cloacae 359315 Left foot wound
[12] = read-out: % bacterial viability, S. agalactiae # 30
[13] = read-out: % bacterial viability, S. agalactiae # 44
[14] = read-out: % bacterial viability, S. agalactiae # 70
[15] = read-out: % bacterial viability, S. agalactiae # 88
[16] = read-out: % bacterial viability, S. agalactiae # 106

N[C@@H](CCC(=O)N[C@@H](CS)C(=O)NCC(=O)O)C(=O)O [GSH, glutathione]
killing/disrupting biofilms compared with antibiotics [1]: significantly higher effect than antibiotics | viability at 10000 µM ([2]; 364077 Scalp wound): 95.6% | viability at 15000 µM ([2]; 364077 Scalp wound): 93% | viability at 30000 µM ([2]; 364077 Scalp wound): 30.3% | viability at 10000 µM ([2]; 365707 Left ankle wound): 104% | viability at 15000 µM ([2]; 365707 Left ankle wound): 101% | viability at 30000 µM ([2]; 365707 Left ankle wound): 11.2% | viability at 10000 µM ([2]; PA0053 DFU): 89.8% | viability at 15000 µM ([2]; PA0053 DFU): 74.5% | viability at 30000 µM ([2]; PA0053 DFU): 7.3% | viability at 10000 µM ([3]; 374450 Catheter urine): 86% | viability at 15000 µM ([3]; 374450 Catheter urine): 72.8% | viability at 30000 µM ([3]; 374450 Catheter urine): 16.8% | viability at 10000 µM ([3]; 377951 Left hip wound): 81.6% | viability at 15000 µM ([3]; 377951 Left hip wound): 70.8% | viability at 30000 µM ([3]; 377951 Left hip wound): 9.13% | viability at 10000 µM ([3]; 385261 Neck wound): 78.8% | viability at 15000 µM ([3]; 385261 Neck wound): 62.5% | viability at 30000 µM ([3]; 385261 Neck wound): 14.1% | viability at 10000 µM ([4]; GSH 10 mM): 79% | viability at 15000 µM ([4]; GSH 15 mM): 55.1% | viability at 30000 µM ([4]; GSH 30 mM): 14.6% | viability at 10000 µM ([5]; E. cloacae 357768 Ear): 62.8% | viability at 15000 µM ([5]; E. cloacae 357768 Ear): 38.9% | viability at 30000 µM ([5]; E. cloacae 357768 Ear): 0% | viability at 10000 µM [5, 11]: 84.7% | viability at 15000 µM [5, 11]: 74% | viability at 30000 µM [5, 11]: 19.5% | viability at 10000 µM [6, 12]: 104% | viability at 15000 µM [6, 12]: 80.7% | viability at 30000 µM [6, 12]: 35.3% | viability at 10000 µM [6, 13]: 87% | viability at 15000 µM [6, 13]: 73.9% | viability at 30000 µM [6, 13]: 29.2% | viability at 10000 µM [6, 14]: 89.2% | viability at 15000 µM [6, 14]: 79.4% | viability at 30000 µM [6, 14]: 38.3% | viability at 10000 µM [6, 15]: 88% | viability at 15000 µM [6, 15]: 81.6% | viability at 30000 µM [6, 15]: 25% | viability at 10000 µM [6, 16]: 103% | viability at 15000 µM [6, 16]: 83.2% | viability at 30000 µM [6, 16]: 29.2% | viability at 10000 µM ([7]; 362805 Exit): 75.7% | viability at 15000 µM ([7]; 362805 Exit): 71.8% | viability at 30000 µM ([7]; 362805 Exit): 0.7% | viability at 10000 µM ([7]; 365714 Wound): 108% | viability at 15000 µM ([7]; 365714 Wound): 93.4% | viability at 30000 µM ([7]; 365714 Wound): 12.3% | viability at 10000 µM ([7]; 366290 Drain fluid): 69.8% | viability at 15000 µM ([7]; 366290 Drain fluid): 68.7% | viability at 30000 µM ([7]; 366290 Drain fluid): 3.9% | viability at 10000 µM ([8]; read-out: % bacterial viability, MRAB 1 014754 Urine, GSH 10 mM): 73.6% | viability at 15000 µM ([8]; read-out: % bacterial viability, MRAB 1 014754 Urine, GSH 15 mM): 55.6% | viability at 30000 µM ([8]; read-out: % bacterial viability, MRAB 1 014754 Urine, GSH 30 mM): 20.4% | viability at 10000 µM ([8]; read-out: % bacterial viability, MRAB 2 014801 Catheter, GSH 10 mM): 70.8% | viability at 15000 µM ([8]; read-out: % bacterial viability, MRAB 2 014801 Catheter, GSH 15 mM): 41.2% | viability at 30000 µM ([8]; read-out: % bacterial viability, MRAB 2 014801 Catheter, GSH 30 mM): 2.45% | viability at 10000 µM ([8]; read-out: % bacterial viability, MRAB 3 015069 Skin, GSH 10 mM): 84.6% | viability at 15000 µM ([8]; read-out: % bacterial viability, MRAB 3 015069 Skin, GSH 15 mM): 63.2% | viability at 30000 µM ([8]; read-out: % bacterial viability, MRAB 3 015069 Skin, GSH 30 mM): 37.7% | viability at 10000 µM ([8]; read-out: % bacterial viability, MRAB 4 015095 Hospital Environ, GSH 10 mM): 68% | viability at 15000 µM ([8]; read-out: % bacterial viability, MRAB 4 015095 Hospital Environ, GSH 15 mM): 57.7% | viability at 30000 µM ([8]; read-out: % bacterial viability, MRAB 4 015095 Hospital Environ, GSH 30 mM): 13.8% | viability at 10000 µM ([8]; read-out: % bacterial viability, MRAB 5 015103 Hospital Environ, GSH 10 mM): 65.1% | viability at 15000 µM ([8]; read-out: % bacterial viability, MRAB 5 015103 Hospital Environ, GSH 15 mM): 51.5% | viability at 30000 µM ([8]; read-out: % bacterial viability, MRAB 5 015103 Hospital Environ, GSH 30 mM): 16.7% | viability at 10000 µM ([8]; read-out: % bacterial viability, MRAB 12 016419 Catheter, GSH 10 mM): 80.8% | viability at 15000 µM ([8]; read-out: % bacterial viability, MRAB 12 016419 Catheter, GSH 15 mM): 49% | viability at 30000 µM ([8]; read-out: % bacterial viability, MRAB 12 016419 Catheter, GSH 30 mM): 18.4% | viability at 10000 µM ([9]; read-out: % bacterial viability, MRSA 27060 Left leg, GSH 10 mM): 88.8% | viability at 15000 µM ([9]; read-out: % bacterial viability, MRSA 27060 Left leg, GSH 15 mM): 65.2% | viability at 30000 µM ([9]; read-out: % bacterial viability, MRSA 27060 Left leg, GSH 30 mM): 1.02% | viability at 10000 µM ([9]; read-out: % bacterial viability, MRSA 30616 Chin vesicle, GSH 10 mM): 73.1% | viability at 15000 µM ([9]; read-out: % bacterial viability, MRSA 30616 Chin vesicle, GSH 15 mM): 58.8% | viability at 30000 µM ([9]; read-out: % bacterial viability, MRSA 30616 Chin vesicle, GSH 30 mM): 4.54% | viability at 10000 µM ([9]; read-out: % bacterial viability, MRSA - 0799 DFU, GSH 10 mM): 86.7% | viability at 15000 µM ([9]; read-out: % bacterial viability, MRSA - 0799 DFU, GSH 15 mM): 75% | viability at 30000 µM ([9]; read-out: % bacterial viability, MRSA - 0799 DFU, GSH 30 mM): 33.1% | viability at 10000 µM ([10]; 361194 Left leg boil): 55.6% | viability at 15000 µM ([10]; 361194 Left leg boil): 35.8% | viability at 30000 µM ([10]; 361194 Left leg boil): 4.3% | viability at 10000 µM ([10]; 371982 Skin Wound): 99.8% | viability at 15000 µM ([10]; 371982 Skin Wound): 90.2% | viability at 30000 µM ([10]; 371982 Skin Wound): 15.4% | viability at 10000 µM ([10]; 386596 Head Wound): 67.7% | viability at 15000 µM ([10]; 386596 Head Wound): 42.7% | viability at 30000 µM ([10]; 386596 Head Wound): 22.3%
